Results on 9 molecules are retold here after PubChem BioAssay (NCI).

Values joined by “and” are separate entries in the source; they are usually repeats but may differ in a detail not shown here. Equal entries are not always repeated.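 Where inhibition never reached the appropriate level, the endpoint shown equals the highest concentration tested. Otherwise, values were interpolated linearly from a five-concentration, 48-hour dose response in 96-well plates. The concentration for 50% growth inhibition is given as GI50. TGI: concentration producing complete growth inhibition.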

Some test systems named below: TK-10 renal; DU-145 prostate; HS 578T breast; NCI-H460 lung; NCI-H23 lung; IGROV1 ovarian; SR leukemia; RPMI-8226 leukemia.
What all share (experiment): inhibition of tumour cell growth, NCI panel, 48 h

Take `O=C(CCc1nnc(-c2c(Cl)cccc2Cl)o1)c1nc2ccccc2[nH]1`: the GI50 in the assay with TK-10 renal was 16.4 µM; in the assay with DU-145 prostate, 17.8 µM; in the assay with HS 578T breast, 9.71 µM; with NCI-H460 lung, 4.99 µM; with NCI-H23 lung, 3.23 µM; in the assay on IGROV1 ovarian, 5.26 µM. In addition, the GI50 in the assay with SR leukemia is 2.63 µM; in the assay on RPMI-8226 leukemia, 3.61 µM. The TGI with TK-10 renal was over 100 µM; in the assay on DU-145 prostate, over 100 µM; in the assay with HS 578T breast, 93.9 µM; with NCI-H460 lung, 28.6 µM; in the assay on NCI-H23 lung, 63.2 µM; with IGROV1 ovarian, 39.1 µM. Besides, the results for the TGI in the assay on SR leukemia and in the assay on RPMI-8226 leukemia were 15.2 µM and 23.3 µM, respectively.

As for `CN(C)c1ccc(/C=C(\C#N)c2cc3ccccc3n2C)cc1`, the GI50 is over 100 µM with TK-10 renal; 0.505 µM in the assay on DU-145 prostate; 0.361 µM with HS 578T breast; 0.353 µM with NCI-H460 lung; 0.56 µM with NCI-H23 lung; 0.143 µM with IGROV1 ovarian. The results for the GI50 in the assay on SR leukemia and in the assay with RPMI-8226 leukemia were 0.0396 µM and 0.351 µM, respectively. The TGI was over 100 µM in the assay on TK-10 renal; over 100 µM with DU-145 prostate; over 100 µM in the assay with HS 578T breast; 4.4 µM in the assay on NCI-H460 lung; over 100 µM with NCI-H23 lung; over 100 µM in the assay with IGROV1 ovarian. The TGI in the assay with RPMI-8226 leukemia is over 100 µM.

`CC1(C)CC(=O)C2=C(C1)NC(SSC1=C(C#N)C(c3ccc(Br)cc3)C3=C(CC(C)(C)CC3=O)N1)=C(C#N)C2c1ccc(Br)cc1` (stereo not drawn): the GI50 in the assay on TK-10 renal was over 150 µg/mL; in the assay with DU-145 prostate it was over 150 µg/mL; with HS 578T breast, 43.5 µg/mL; with NCI-H460 lung, over 150 µg/mL; with NCI-H23 lung, over 150 µg/mL; in the assay with IGROV1 ovarian, over 150 µg/mL. In addition, the GI50 with SR leukemia was 22.8 µg/mL; in the assay with RPMI-8226 leukemia it was 30.6 µg/mL. The TGI in the assay with TK-10 renal is > 100 µM and 150 µg/mL; with DU-145 prostate, > 100 µM and 150 µg/mL; with HS 578T breast, > 100 µM and 150 µg/mL; in the assay with NCI-H460 lung, > 100 µM and 150 µg/mL; in the assay on NCI-H23 lung it was > 100 µM and 150 µg/mL; in the assay with IGROV1 ovarian, > 100 µM and 150 µg/mL. For the same molecule, the TGI is > 100 µM and 66.2 µg/mL in the assay on SR leukemia; > 100 µM and 79.3 µg/mL in the assay with RPMI-8226 leukemia.

Consider `C=C1C(=O)O[C@H]2[C@H]1CC/C(COC(=O)/C=C\C(=O)NCc1ccc(Cn3c(=O)sn(-c4ccc(OC)cc4)c3=O)cc1)=C\CC[C@@]1(C)O[C@@H]21`, for which the GI50 is 0.917 µM in the assay on TK-10 renal; 0.694 µM in the assay with DU-145 prostate; 0.913 µM with HS 578T breast; 0.804 µM in the assay on NCI-H460 lung; 0.863 µM in the assay with NCI-H23 lung; 0.505 µM in the assay with IGROV1 ovarian. The GI50 is 0.322 µM in the assay on SR leukemia and 0.313 µM with RPMI-8226 leukemia. Besides, the TGI was determined as 1.67 µM in the assay on TK-10 renal; 1.36 µM with DU-145 prostate; 2.51 µM in the assay on HS 578T breast; 1.81 µM in the assay with NCI-H460 lung; 1.84 µM in the assay on NCI-H23 lung; 1.21 µM in the assay on IGROV1 ovarian. The TGI worked out at 11.8 µM with SR leukemia and 2.43 µM with RPMI-8226 leukemia.

For the molecule `Cc1ccc(Cl)cc1Nc1nc(C(F)(F)F)ccc1C(=O)N/N=C/c1c(Cl)cccc1Cl`, the GI50 with TK-10 renal is 1.4 µM; with DU-145 prostate, 1.21 µM; in the assay on HS 578T breast, 1.04 µM; with NCI-H460 lung it was 0.578 µM; with NCI-H23 lung, 1.55 µM; in the assay on IGROV1 ovarian, 0.994 µM. In addition, the GI50 was 0.251 µM in the assay with SR leukemia and 0.32 µM in the assay with RPMI-8226 leukemia. In addition, the TGI in the assay on TK-10 renal was 7.39 µM; in the assay with DU-145 prostate it was over 100 µM; in the assay on HS 578T breast, 6.18 µM; in the assay on NCI-H460 lung, 4.81 µM; in the assay with NCI-H23 lung, 7.39 µM; in the assay on IGROV1 ovarian it was over 68.9 µM. For the same molecule, the TGI in the assay on SR leukemia was determined as 3.88 µM; in the assay on RPMI-8226 leukemia, 1.79 µM.

For `CCCN(CCC)c1ccc(C=O)cc1`, the GI50 with TK-10 renal is 37.5 µM; in the assay on DU-145 prostate, 46.7 µM; in the assay with HS 578T breast, over 62.1 µM; in the assay with NCI-H460 lung, over 100 µM; in the assay on NCI-H23 lung, 36.9 µM; with IGROV1 ovarian, over 84.4 µM. In addition, the GI50 is 33.7 µM in the assay on SR leukemia and 54.5 µM in the assay with RPMI-8226 leukemia. Besides, the TGI in the assay with TK-10 renal, with DU-145 prostate, in the assay with HS 578T breast, with NCI-H460 lung, in the assay on NCI-H23 lung and in the assay on IGROV1 ovarian was over 100 µM throughout. Moreover, the TGI in the assay with SR leukemia and in the assay with RPMI-8226 leukemia was over 100 µM each time.

For `CCOC(=O)C1=C(N)Oc2c(sc3c(C)cccc23)C1c1ccc(Cl)cc1` (stereo not drawn), the GI50 is 12.6 µM with TK-10 renal; 3.89 µM with DU-145 prostate; 1.78 µM with HS 578T breast; 3.29 µM in the assay with NCI-H460 lung; 2.5 µM in the assay with NCI-H23 lung; 0.962 µM with IGROV1 ovarian. Further, the GI50 in the assay with SR leukemia was 1.49 µM; in the assay with RPMI-8226 leukemia it was 3.26 µM. The TGI was 29.1 µM in the assay with TK-10 renal; 14.1 µM with DU-145 prostate; 6.95 µM with HS 578T breast; 11.6 µM in the assay with NCI-H460 lung; 10.5 µM in the assay on NCI-H23 lung; 15.4 µM in the assay with IGROV1 ovarian. Further, the TGI was determined as 18 µM with SR leukemia and 13.1 µM with RPMI-8226 leukemia.

With `C#CC[C@@H]1C[C@]2(C)[C@H]3CC[C@@H]4[C@H]5[C@H](C(=C)C)CC[C@]5(C(=O)O)CC[C@@]4(C)[C@]3(C)CC[C@H]2C(C)(C)[C@H]1O`, the GI50 in the assay on TK-10 renal was 1.85 µM; with DU-145 prostate it was 3.23 µM; with HS 578T breast, 2.34 µM; in the assay with NCI-H460 lung, 1.62 µM; with NCI-H23 lung, 2.38 µM; with IGROV1 ovarian, 4.21 µM. Also, the GI50 is 3.12 µM with SR leukemia and 1.68 µM in the assay on RPMI-8226 leukemia. Besides, the TGI with TK-10 renal turned out to be 4.44 µM; in the assay with DU-145 prostate it was 10.8 µM; in the assay on HS 578T breast, 7.01 µM; with NCI-H460 lung, 3.18 µM; with NCI-H23 lung, 6.95 µM; in the assay on IGROV1 ovarian it was 15.6 µM. Also, the TGI amounted to 11.9 µM in the assay with SR leukemia and 14.7 µM with RPMI-8226 leukemia.

As to `O=C(CCCCC(=O)N/N=C\c1ccccc1Cl)N/N=C\c1ccccc1Cl`, the GI50 in the assay on TK-10 renal is 4.68 µM; in the assay on DU-145 prostate, 8.33 µM; in the assay on HS 578T breast, 2.02 µM; in the assay with NCI-H460 lung, 3.15 µM; in the assay on NCI-H23 lung it was 13.7 µM; in the assay with IGROV1 ovarian, 8.79 µM. In addition, the results for the GI50 with SR leukemia and in the assay on RPMI-8226 leukemia were over 100 µM and 0.723 µM, respectively. Further, the TGI was 25.8 µM with TK-10 renal; over 100 µM in the assay with DU-145 prostate; 49 µM in the assay on HS 578T breast; over 100 µM in the assay with NCI-H460 lung; over 100 µM with NCI-H23 lung; over 100 µM with IGROV1 ovarian. The TGI with SR leukemia and in the assay on RPMI-8226 leukemia was over 100 µM each time.
